Experimental data as given in US8901118B2, “Compounds and methods for kinase modulation, and indications therefor” (Plexxikon Inc., priority 2010, dated 2014).

biological target: Fms kinase (Homo sapiens, UniProt P07333); experiment: Fms kinase biochemical activity assay (AlphaScreen, biotin-(E4Y)10 phosphorylation); details: 100 μM ATP; read-out: Biochemical Inhibition IC50 Fms
Summary of the method: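 Fms kinase (1 ng/well) phosphorylating 30 nM biotin-(E4Y)10 with 100 μM ATP in 25 mM Hepes pH 7.5, MgCl2/MnCl2, 5% DMSO, 20 min at 30 °C. Phosphotyrosine detected by AlphaScreen streptavidin donor and PY20 acceptor beads; IC50 from signal versus compound concentration.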

Fms kinase, sequence (P07333 20-972): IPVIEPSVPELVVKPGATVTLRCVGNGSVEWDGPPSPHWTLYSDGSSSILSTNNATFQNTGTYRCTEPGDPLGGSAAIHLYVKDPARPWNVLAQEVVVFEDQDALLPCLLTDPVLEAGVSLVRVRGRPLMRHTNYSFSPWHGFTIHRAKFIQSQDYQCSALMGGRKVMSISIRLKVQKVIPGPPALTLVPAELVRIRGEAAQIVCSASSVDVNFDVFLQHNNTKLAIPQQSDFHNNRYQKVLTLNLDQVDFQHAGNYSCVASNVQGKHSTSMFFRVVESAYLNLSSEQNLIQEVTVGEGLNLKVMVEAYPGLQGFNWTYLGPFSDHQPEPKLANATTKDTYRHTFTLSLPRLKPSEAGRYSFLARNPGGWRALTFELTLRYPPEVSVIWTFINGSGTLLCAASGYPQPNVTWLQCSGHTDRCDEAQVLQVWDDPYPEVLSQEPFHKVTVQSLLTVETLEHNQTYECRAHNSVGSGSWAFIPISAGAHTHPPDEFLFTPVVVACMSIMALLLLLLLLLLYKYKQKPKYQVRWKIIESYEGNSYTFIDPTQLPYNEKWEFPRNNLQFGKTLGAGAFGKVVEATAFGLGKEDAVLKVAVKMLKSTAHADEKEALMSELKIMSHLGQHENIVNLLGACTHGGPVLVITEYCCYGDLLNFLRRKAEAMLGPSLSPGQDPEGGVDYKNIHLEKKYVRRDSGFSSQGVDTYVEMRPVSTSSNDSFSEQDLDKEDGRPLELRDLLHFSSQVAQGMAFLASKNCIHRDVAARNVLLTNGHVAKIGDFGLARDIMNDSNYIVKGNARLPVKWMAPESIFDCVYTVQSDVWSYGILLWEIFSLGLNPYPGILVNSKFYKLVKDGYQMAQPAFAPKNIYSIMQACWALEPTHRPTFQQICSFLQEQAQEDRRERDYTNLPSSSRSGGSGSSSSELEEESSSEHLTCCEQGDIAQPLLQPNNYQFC

**Q.** With `CCc1ccc(Nc2ncc(Cc3c[nH]c4ncc(C)cc34)cn2)cc1` [Compound P-3025, (4-Ethyl-phenyl)-[5-(5-methyl-1H-pyrrolo[2,3-b]pyridin-3-ylmethyl)-pyrimidin-2-yl]-amine] as the compound, how does the IC50 read?
**A.** < 100 nM

**Q.** With `Clc1cnc2[nH]cc(Cc3cnc(NC4CCCC4)nc3)c2c1` [Compound P-3003, [5-(5-Chloro-1H-pyrrolo[2,3-b]pyridin-3-ylmethyl)-pyrimidin-2-yl]-cyclopentyl-amine] as the compound, how does the IC50 read?
**A.** < 1000 nM

**Q.** Which IC50 does the source give for `CCOc1ccc(Nc2ccc(Cc3c[nH]c4ncnc(C5CC5)c34)c(F)n2)cn1` [Compound P-4026, [5-(4-Cyclopropyl-7H-pyrrolo[2,3-d]pyrimidin-5-ylmethyl)-6-fluoro-pyridin-2-yl]-(6-ethoxy-pyridin-3-yl)-amine] here?
**A.** < 10 nM

**Q.** Which IC50 does the source give for `CCn1ccc(Nc2ncc(Cc3c[nH]c4ncc(C)cc34)cn2)n1` [Compound P-3035, (1-Ethyl-1H-pyrazol-3-yl)-[5-(5-methyl-1H-pyrrolo[2,3-b]pyridin-3-ylmethyl)-pyrimidin-2-yl]-amine] here?
**A.** < 1000 nM

**Q.** How did the IC50 turn out when `Cc1cnc2[nH]cc(Cc3cnc(Nc4cc(-c5ccc(F)cc5)n[nH]4)nc3)c2c1` [Compound P-3028, [5-(4-Fluoro-phenyl)-2H-pyrazol-3-yl]-[5-(5-methyl-1H-pyrrolo[2,3-b]pyridin-3-ylmethyl)-pyrimidin-2-yl]-amine] was run?
**A.** > 1000 nM

**Q.** How did the IC50 turn out when `CCOc1ncnc2[nH]cc(Cc3ccc(Nc4cccnc4)nc3F)c12` [Compound P-4021, [5-(4-Ethoxy-7H-pyrrolo[2,3-d]pyrimidin-5-ylmethyl)-6-fluoro-pyridin-2-yl]-pyridin-3-yl-amine] was run?
**A.** < 100 nM

**Q.** `COc1cc(Nc2ncc(Cc3c[nH]c4ncc(C)cc34)cn2)ccc1F` [Compound P-3022, (4-Fluoro-3-methoxy-phenyl)-[5-(5-methyl-1H-pyrrolo[2,3-b]pyridin-3-ylmethyl)-pyrimidin-2-yl]-amine] was tested. Which IC50 did it give?
**A.** < 100 nM

**Q.** With `Cc1cnc2[nH]cc(Cc3cnc(Nc4cc(C(C)(C)C)n[nH]4)nc3)c2c1` [Compound P-3029, (5-tert-Butyl-2H-pyrazol-3-yl)-[5-(5-methyl-1H-pyrrolo[2,3-b]pyridin-3-ylmethyl)-pyrimidin-2-yl]-amine] as the compound, how does the IC50 read?
**A.** < 100 nM

**Q.** How did the IC50 turn out when `Cc1cnc2[nH]cc(Cc3cnc(Nc4ccc(S(C)(=O)=O)cc4)nc3)c2c1` [Compound P-3034, (4-Methanesulfonyl-phenyl)-[5-(5-methyl-1H-pyrrolo[2,3-b]pyridin-3-ylmethyl)-pyrimidin-2-yl]-amine] was run?
**A.** < 100 nM

**Q.** `Cc1ccc(Nc2ccc(Cc3c[nH]c4ncc(Cl)cc34)c(F)n2)cn1` [Compound P-3042, [5-(5-Chloro-1H-pyrrolo[2,3-b]pyridin-3-ylmethyl)-6-fluoro-pyridin-2-yl]-(6-methyl-pyridin-3-yl)-amine] was tested. Which IC50 did it give?
**A.** < 10 nM

**Q.** `COc1ccc(Nc2ncc(Cc3c[nH]c4ncc(C)cc34)cn2)cc1` [Compound P-3021, (4-Methoxy-phenyl)-[5-(5-methyl-1H-pyrrolo[2,3-b]pyridin-3-ylmethyl)-pyrimidin-2-yl]-amine] was tested. Which IC50 did it give?
**A.** < 10 nM

**Q.** Which IC50 does the source give for `CCOc1ccc(Nc2ncc(Cc3c[nH]c4ncc(C)cc34)cn2)cn1` [Compound P-3027, (6-Ethoxy-pyridin-3-yl)-[5-(5-methyl-1H-pyrrolo[2,3-b]pyridin-3-ylmethyl)-pyrimidin-2-yl]-amine] here?
**A.** < 10 nM

**Q.** How did the IC50 turn out when `Cc1cncc(Nc2ccc(C(=O)c3c[nH]c4ncnc(C5CC5)c34)c(F)n2)c1` [Compound P-4039, (4-Cyclopropyl-7H-pyrrolo[2,3-d]pyrimidin-5-yl)-[2-fluoro-6-(5-methyl-pyridin-3-ylamino)-pyridin-3-yl]-methanone] was run?
**A.** < 1000 nM

**Q.** Which IC50 does the source give for `CSc1ccc(Nc2ncc(Cc3c[nH]c4ncc(C)cc34)cn2)cc1` [Compound P-3033, [5-(5-Methyl-1H-pyrrolo[2,3-b]pyridin-3-ylmethyl)-pyrimidin-2-yl]-(4-methylsulfanyl-phenyl)-amine] here?
**A.** < 100 nM

**Q.** `CCCOc1ccc(Nc2ncc(Cc3c[nH]c4ncc(C)cc34)cn2)cc1` [Compound P-3024, [5-(5-Methyl-1H-pyrrolo[2,3-b]pyridin-3-ylmethyl)-pyrimidin-2-yl]-(4-propoxy-phenyl)-amine] was tested. Which IC50 did it give?
**A.** < 100 nM

**Q.** How did the IC50 turn out when `Fc1cccc(Nc2ncc(Cc3c[nH]c4ncc(Cl)cc34)cn2)c1` [Compound P-3017, [5-(5-Chloro-1H-pyrrolo[2,3-b]pyridin-3-ylmethyl)-pyrimidin-2-yl]-(3-fluoro-phenyl)-amine] was run?
**A.** < 100 nM

**Q.** `Cc1cnc2[nH]cc(Cc3cnc(Nc4cc(C5CC5)n[nH]4)nc3)c2c1` [Compound P-3032, (5-Cyclopropyl-2H-pyrazol-3-yl)-[5-(5-methyl-1H-pyrrolo[2,3-b]pyridin-3-ylmethyl)-pyrimidin-2-yl]-amine] was tested. Which IC50 did it give?
**A.** > 1000 nM

**Q.** With `CCOc1ncnc2[nH]cc(Cc3ccc(Nc4ccc(Br)nc4)nc3F)c12` [Compound P-4020, (6-Bromo-pyridin-3-yl)-[5-(4-ethoxy-7H-pyrrolo[2,3-d]pyrimidin-5-ylmethyl)-6-fluoro-pyridin-2-yl]-amine] as the compound, how does the IC50 read?
**A.** < 10 nM

**Q.** Which IC50 does the source give for `CCOc1ccc(Nc2ccc(C(=O)c3c[nH]c4ncc(C)cc34)c(F)n2)cn1` [Compound P-3045, [6-(6-ethoxy-pyridin-3-ylamino)-2-fluoro-pyridin-3-yl]-(5-methyl-1H-pyrrolo[2,3-b]pyridin-3-yl)-methanone] here?
**A.** < 10 nM

**Q.** `Cc1cnc2[nH]cc(Cc3cnc(Nc4ccc(C(C)(C)C)cc4)nc3)c2c1` [Compound P-3030, (4-tert-Butyl-phenyl)-[5-(5-methyl-1H-pyrrolo[2,3-b]pyridin-3-ylmethyl)-pyrimidin-2-yl]-amine amine] was tested. Which IC50 did it give?
**A.** < 100 nM

**Q.** For `CCOc1ccc(Nc2ccc(C(=O)c3c[nH]c4ncnc(C5CC5)c34)c(F)n2)cn1` [Compound P-4027, (4-Cyclopropyl-7H-pyrrolo[2,3-d]pyrimidin-5-yl)-[6-(6-ethoxy-pyridin-3-ylamino)-2-fluoro-pyridin-3-yl]-methanone], which IC50 is on record?
**A.** < 100 nM

**Q.** For `CCOc1ccc(Nc2ccc(C(=O)c3c[nH]c4ncnc(C)c34)c(F)n2)cn1` [Compound P-4032, [6-(6-Ethoxy-pyridin-3-ylamino)-2-fluoro-pyridin-3-yl]-(4-methyl-7H-pyrrolo[2,3-d]pyrimidin-5-yl)-methanone], which IC50 is on record?
**A.** < 100 nM

**Q.** With `Cc1cncc(Nc2ccc(Cc3c[nH]c4ncnc(C5CC5)c34)c(F)n2)c1` [Compound P-4038, [5-(4-Cyclopropyl-7H-pyrrolo[2,3-d]pyrimidin-5-ylmethyl)-6-fluoro-pyridin-2-yl]-(5-methyl-pyridin-3-yl)-amine] as the compound, how does the IC50 read?
**A.** < 100 nM

**Q.** With `COc1ccc(Nc2ncc(Cc3c[nH]c4ncc(C)cc34)cn2)cc1F` [Compound P-3023, (3-Fluoro-4-methoxy-phenyl)-[5-(5-methyl-1H-pyrrolo[2,3-b]pyridin-3-ylmethyl)-pyrimidin-2-yl]-amine] as the compound, how does the IC50 read?
**A.** < 100 nM

**Q.** For `Clc1cnc2[nH]cc(Cc3cnc(NC4CC4)nc3)c2c1` [Compound P-3005, [5-(5-Chloro-1H-pyrrolo[2,3-b]pyridin-3-ylmethyl)-pyrimidin-2-yl]-cyclopropyl-amine], which IC50 is on record?
**A.** < 1000 nM

**Q.** Which IC50 does the source give for `Cc1cnc2[nH]cc(Cc3cnc(Nc4ccc(C(O)(C(F)(F)F)C(F)(F)F)cc4)nc3)c2c1` [Compound P-3031, 1,1,1,3,3,3-Hexafluoro-2-{4-[5-(5-methyl-1H-pyrrolo[2,3-b]pyridin-3-ylmethyl)-pyrimidin-2-ylamino]-phenyl}-propan-2-ol] here?
**A.** < 1000 nM

**Q.** For `CCOc1ccc(Nc2ncc(Cc3c[nH]c4ncc(C)cc34)cn2)cc1` [Compound P-3026, (4-Ethoxy-phenyl)-[5-(5-methyl-1H-pyrrolo[2,3-b]pyridin-3-ylmethyl)-pyrimidin-2-yl]-amine], which IC50 is on record?
**A.** < 10 nM

**Q.** Which IC50 does the source give for `COc1ccc(Nc2ncc(Cc3c[nH]c4ncc(C)cc34)cn2)cn1` [Compound P-3020, (6-Methoxy-pyridin-3-yl)-[5-(5-methyl-1H-pyrrolo[2,3-b]pyridin-3-ylmethyl)-pyrimidin-2-yl]-amine] here?
**A.** < 10 nM

**Q.** With `Cc1cnc2[nH]cc(Cc3cnc(Nc4cc(C(F)(F)F)n[nH]4)nc3)c2c1` [Compound P-3037, [5-(5-Methyl-1H-pyrrolo[2,3-b]pyridin-3-ylmethyl)-pyrimidin-2-yl]-(5-trifluoromethyl-2H-pyrazol-3-yl)-amine] as the compound, how does the IC50 read?
**A.** > 1000 nM

**Q.** For `CCn1cc(Nc2ncc(Cc3c[nH]c4ncc(C)cc34)cn2)cn1` [Compound P-3036, (1-Ethyl-1H-pyrazol-4-yl)-[5-(5-methyl-1H-pyrrolo[2,3-b]pyridin-3-ylmethyl)-pyrimidin-2-yl]-amine], which IC50 is on record?
**A.** < 10 nM

**Q.** Which IC50 does the source give for `Cc1cnc2[nH]cc(Cc3cnc(Nc4cc(OC(C)C)n[nH]4)nc3)c2c1` [Compound P-3038, (5-Isopropoxy-2H-pyrazol-3-yl)-[5-(5-methyl-1H-pyrrolo[2,3-b]pyridin-3-ylmethyl)-pyrimidin-2-yl]-amine] here?
**A.** < 1000 nM

**Q.** For `COc1ccccc1Nc1ncc(Cc2c[nH]c3ncc(Cl)cc23)cn1` [Compound P-3016, [5-(5-Chloro-1H-pyrrolo[2,3-b]pyridin-3-ylmethyl)-pyrimidin-2-yl]-(2-methoxy-phenyl)-amine], which IC50 is on record?
**A.** < 100 nM
